Source: patent US7842808B2, “Anti-migraine spirocycles” (Bristol-Myers Squibb Company, priority 2002, dated 2010)
Where two headings read alike, the source gives them in different places.

Tests used:
[1] = target: T1, human CGRP receptor (SK-N-MC cells) (Homo sapiens, UniProt O60894+Q16602); assay: Schild analysis of CGRP stimulated cAMP production; assay type: cell-based; conditions: for slope: Schild plot slope
T1 construct: SK-N-MC cells that endogenously express the human CGRP receptor; endogenous in cells; host or cells: SK-N-MC cells
Description: Functional Antagonism. Antagonism of the compounds of invention was determined by measuring the formation of cyclic AMP (adenosine 3′5′-cyclic monophosphate) in SK-N-MC cells that endogenously express the human CGRP receptor. CGRP receptor complex is coupled with Gs protein and CGRP binding to this complex leads to the cyclic AMP production via Gs—dependent activation of an adenylate cyclase (Juaneda C et al., TiPS, 2000; 21:432-438; incorporated by reference herein). Consequently, CGRP receptor antagonists inhibit CGRP-induced cyclic AMP formation in SK-N-MC cells (Doods H et al., Br J Pharmacol, 2000; 129(3):420-423); incorporated by reference herein). For cyclic AMP measurements SK-N-MC cells were incubated with 0.3 nM CGRP alone or in the presence of various concentrations of the compounds of invention for 30 min at room temperature. Compounds of invention were pre-incubated with SK-N-MC cells for 15 min before the addition of CGRP to allow receptor occupancy (Edvinsson et al., Eur J Pharmacol, 2001, 415:39-44; incorporated by reference herein). Cyclic AMP was extracted using the lysis reagent and its concentration was determined by radioimmunoassay using RPA559 cAMP SPA Direct Screening Assay Kit (Amersham Pharmacia Biotech). IC50 values were calculated using Excel fit.
Schild Analysis. Schild analysis can be used to characterize the nature of antagonism of the compounds of invention. The dose response of CGRP stimulated cAMP production was generated either with CGRP alone, or in the presence of various concentrations of compounds of invention. The antagonist dose is plotted as X against the dose ratio (defined as IC50 of agonist with the presence of the compounds divided by the IC50 of the agonist alone) minus 1 as Y. Linear regression was then performed with both X and Y axis log-transformed. […] Kb is the dissociation constant of the antagonist.

[2] = target: T2, CGRP receptor (SK-N-MC cell membranes) (Homo sapiens, UniProt O60894+Q16602); assay: CGRP Binding Assay ([125I]-CGRP radioligand binding, SK-N-MC homogenate); conditions: displacement of [125I]-CGRP, SK-N-MC homogenate; read-out: CGRP binding IC50
T2 construct: endogenous in cells; host or cells: SK-N-MC cells (membrane homogenate)

[3] = target: T1, human CGRP receptor (SK-N-MC cells); assay: Cyclic AMP Assay, functional antagonism of CGRP-induced cyclic AMP formation; assay type: cell-based
Procedure, shortened: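 SK-N-MC cells, which endogenously express human CGRP receptor, stimulated with 0.3 nM CGRP with or without compound for 30 min at room temperature. Cellular cAMP extracted by lysis and quantified by SPA radioimmunoassay; IC50 from inhibition of CGRP-induced cAMP.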

[4] = test system: human cerebral vessels (CGRP-induced dilation); assay: Ex Vivo Human Cerebral Artery Assay, reversal of CGRP-induced relaxation; conditions: reversal of 1 nM hCGRP-induced relaxation, vessels pre-contracted with 10 mM KCl
From the text: Rationale and Overview. To provided direct evidence of the ability for novel compounds to reverse CGRP-induced dilation in human cerebral vessels, an ex vivo assay was design. Briefly, isolated vessel rings were mounted in a tissue bath where vessels were pre-contracted with potassium chloride (KCl) and fully dilated with hCGRP, then this relaxation was reversed by the cumulative addition of CGRP-receptor antagonists (complete details follow).
Tissue Samples. Autopsy samples of human arteries were obtained from vendors (ABS Inc. or NDRI). All vessels were transported on ice-cold HEPES buffer (composition in mM: NaCl 130, KCl 4, KH2PO4 1.2, MgSO4 1.2, CaCl2 1.8, Glucose 6, NaHCO3 4, HEPES 10, EDTA 0.025). Upon receipt, the vessels were placed in cold Kreb's buffer (composition in mM: NaCl 118.4, KCl 4.7, KH2PO4 1.2, MgSO4 1.2, CaCl2 1.8, Glucose 10.1, NaHCO3 25) saturated with carbogen (5% CO2 and 95% oxygen).
Isolated Tissue Baths. The vessels were cleaned of connective tissues and cut into cylindrical segments of 4-5 mm in length. The vessels were then mounted in tissue baths between two stainless steel hooks; one of which is fixed and the other of which was connected to a force displacement transducer. The vessel tension was continuously recorded using a data acquisition system (Powerlab, ADInstruments, Mountain View, Calif.) connected to the transducer. The tissue baths containing Krebs buffer and mounted vessels were temperature (37° C.) and pH (7.4) controlled with continuous bubbling of carbogen. The artery segments were allowed to equilibrate for about 30-45 min until a stable resting tone was achieved. Prior to the assay, vessels were primed (conditioned) with 100 mM KCl and subsequently washed. The vessels were pre-contracted with 10 mM KCl and fully dilated with 1 nM hCGRP. Concentration-response curves to CGRP-receptor antagonists were performed by the cumulative addition of drugs in half log units in fully dilated vessels. At each concentration, the effects of the drugs were expressed as % reversal of CGRP-induced relaxation in each vessel. The actual assay and data analysis were performed for each vessel individually, fitting the concentration-response data to a four parameter logistic function by non-linear regression analysis, to estimate the EC50 values.

[5] = Schild analysis, dissociation constant of the antagonist, read-out: Kb
[6] = SK-N-MC cells, 0.3 nM CGRP, read-out: cAMP Function IC50

T1 sequence (Q16602 23-461): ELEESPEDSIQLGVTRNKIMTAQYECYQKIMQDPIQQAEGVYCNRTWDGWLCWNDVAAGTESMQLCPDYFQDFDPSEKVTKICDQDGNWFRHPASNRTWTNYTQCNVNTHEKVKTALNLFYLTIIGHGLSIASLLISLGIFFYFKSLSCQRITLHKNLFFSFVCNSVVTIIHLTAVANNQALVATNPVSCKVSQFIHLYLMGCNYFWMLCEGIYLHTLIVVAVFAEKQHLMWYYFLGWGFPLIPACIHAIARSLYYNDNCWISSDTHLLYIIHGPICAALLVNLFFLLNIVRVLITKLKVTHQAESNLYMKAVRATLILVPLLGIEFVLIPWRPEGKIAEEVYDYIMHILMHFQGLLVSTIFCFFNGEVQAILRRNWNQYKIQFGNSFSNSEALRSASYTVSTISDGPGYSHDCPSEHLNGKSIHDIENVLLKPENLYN
T1 sequence (O60894 27-148): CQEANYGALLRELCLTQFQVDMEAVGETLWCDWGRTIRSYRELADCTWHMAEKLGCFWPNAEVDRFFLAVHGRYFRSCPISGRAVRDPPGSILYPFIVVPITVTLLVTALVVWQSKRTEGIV
T2 sequence (Q16602 23-461): as the sequence (Q16602 23-461) above
T2 sequence (O60894 27-148): as the sequence (O60894 27-148) above

SMILES | Kb [1, 5] | slope [1] | IC50 [2] | IC50 [3, 6] | EC50 [4] | IC50 [3] | Kb [1]
O=C(N[C@H](Cc1ccc2[nH]c(=O)oc2c1)C(=O)N1CCC(N2CCCCC2)CC1)N1CCC(N2Cc3ccccc3NC2=O)CC1 [Example 47, (R)-4-(2-Oxo-1,4-dihydro-2H-quinazolin-3-yl)-piperidine-1-carboxylic acid[2-[1,4′]bipiperidinyl-1′-yl-2-oxo-1-(2-oxo-2,3-dihydro-benzooxazol-6-ylmethyl)-ethyl]-amide] | 0.1 nM | 0.93 | < 10 nM | < 10 nM | < 10 nM |  | 
O=C(NC(Cc1ccc2[nH]ccc2c1)C(=O)N1CCC(N2CCCCC2)CC1)N1CCC(N2Cc3ccccc3NC2=O)CC1 (racemic) [Example 5, (±)-4-(2-Oxo-1,4-dihydro-2H-quinazolin-3-yl)-piperidine-1-carboxylic acid[2-[1,4′]bipiperidinyl-1′-yl-1-(1H-indol-5-ylmethyl)-2-oxo-ethyl]-amide] | 3 nM | 0.92 | < 10 nM | < 10 nM |  |  | 
Cc1cc(CC(NC(=O)N2CCC(N3Cc4ccccc4NC3=O)CC2)C(=O)N2CCCCC2)cc2cn[nH]c12 (racemic) [Example 17, (±)-4-(2-Oxo-1,4-dihydro-2H-quinazolin-3-yl)-piperidine-1-carboxylic acid[1-(7-methyl-1H-indazol-5-ylmethyl)-2-oxo-2-piperidin-1-yl-ethyl]-amide] | 1.1 nM | 0.92 | < 10 nM | < 10 nM | < 10 nM |  | 
CCc1cc(CC(NC(=O)N2CCC(N3Cc4ccccc4NC3=O)CC2)C(=O)N2CCC(N3CCCCC3)CC2)cc2cn[nH]c12 (racemic) [Example 45, (±)-4-(2-Oxo-1,4-dihydro-2H-quinazolin-3-yl)-piperidine-1-carboxylic acid[2-[1,4′]bipiperidinyl-1′-yl-1-(7-ethyl-1H-indazol-5-ylmethyl)-2-oxo-ethyl]-amide] |  | 1.4 | < 10 nM |  |  |  | 
Cc1cc(CC(NC(=O)N2CCC(N3Cc4ccccc4NC3=O)CC2)C(=O)N(C)C)cc2cn[nH]c12 (racemic) [Example 18, (±)-4-(2-Oxo-1,4-dihydro-2H-quinazolin-3-yl)-piperidine-1-carboxylic acid[1-dimethylcarbamoyl-2-(7-methyl-1H-indazol-5-yl)-ethyl]-amide] | 1 nM | 0.8 | < 10 nM | 10 to 100 nM | < 10 nM |  | 
Cc1cc(CC(CC(=O)N2CCC(N3Cc4ccccc4NC3=O)CC2)C(=O)N2CCC3(CC2)OCCO3)cc2cn[nH]c12 (racemic) [Example 70, (±)-1-(1,4-Dioxa-8-aza-spiro[4.5]dec-8-yl)-2-(7-methyl-1H-indazol-5-ylmethyl)-4-[4-(2-oxo-1,4-dihydro-2H-quinazolin-3-yl)-piperidin-1-yl]-butane-1,4-dione] |  | 0.71 | < 10 nM |  | < 10 nM | < 10 nM | 
O=C(NC(Cc1cc(Cl)c2[nH]ncc2c1)C(=O)N1CCC(N2CCCCC2)CC1)N1CCC(N2Cc3ccccc3NC2=O)CC1 (racemic) [Example 43, (±)-4-(2-Oxo-1,4-dihydro-2H-quinazolin-3-yl)-piperidine-1-carboxylic acid[2-[1,4′]bipiperidinyl-1′-yl-1-(7-chloro-1H-indazol-5-ylmethyl)-2-oxo-ethyl]-amide] | 0.018 nM | 1.2 | < 10 nM | < 10 nM | < 10 nM |  | 
Cc1cc(CC(NC(=O)N2CCC3(CC2)NC(=O)Nc2ccccc23)C(=O)N2CCC(N3CCCCC3)CC2)cc2cn[nH]c12 (racemic) [Example 23, (±)-1-(7-Methyl-1H-indazol-5-ylmethyl)-2-[1,4-bipiperidin]-1-yl-2-oxoethyl]-2′,3′-dihydro-2′-oxospiro-[piperidine-4,4′-(1H)-quinazoline]-1-carboxamide] |  |  | < 10 nM | < 10 nM | < 10 nM |  | 
Cc1cc(CC(CC(=O)N2CCC3(CC2)OC(=O)Nc2ccccc23)C(=O)N(C)C)cc2cn[nH]c12 (racemic) [Example 76, (±)-N,N-Dimethyl-2-(7-methyl-1H-indazol-5-ylmethyl)-4-oxo-4-[1′,2′-dihydro-2′-oxospiro-[4H-3′,1-benzoxazine-4,4′-piperidinyl]-butyramide] |  |  | 10 to 100 nM | 10 to 100 nM | < 10 nM |  | 
O=C(NC(Cc1ccc2[nH]ccc2c1)C(=O)N1CCC(N2CCCCC2)CC1)N1CCC(n2c(=O)[nH]c3ccccc32)CC1 (racemic) [Example 3, (±)-4-(2-Oxo-2,3-dihydro-benzoimidazol-1-yl)-piperidine-1-carboxylic acid[2-[1,4′]bipiperidinyl-1′-yl-1-(1H-indol-5-ylmethyl)-2-oxo-ethyl]-amide] | 55 nM | 0.96 | 10 to 100 nM | 10 to 100 nM | 10 to 100 nM |  | 
Cc1cc(CC(NC(=O)N2CCC(N3Cc4ccccc4NC3=O)CC2)C(=O)N2CCN(c3ccncc3)CC2)cc2cn[nH]c12 (racemic) [Example 21, (±)-4-(2-Oxo-1,4-dihydro-2H-quinazolin-3-yl)-piperidine-1-carboxylic acid[1-(7-methyl-1H-indazol-5-ylmethyl)-2-oxo-2-(4-pyridin-4-yl-piperazin-1-yl)-ethyl]-amide] | 0.018 nM | 0.89 | < 10 nM | < 10 nM | < 10 nM |  | 
Cc1cc(CC(NC(=O)N2CCC3(CC2)OC(=O)Nc2ccccc23)C(=O)N2CCC(N3CCCCC3)CC2)cc2cn[nH]c12 (racemic) [Example 25, (±)-1-(7-Methyl-1H-indazol-5-ylmethyl)-2-[1,4-bipiperidin]-1-yl-2-oxoethyl]-1′,2′-dihydro-2′-oxospiro-[4H-3′,1-benzoxazine-4,4′-piperidine]-1-carboxamide] |  |  | < 10 nM | < 10 nM | < 10 nM |  | 
Cc1cc(CC(CC(=O)N2CCC3(CC2)OC(=O)Nc2ccccc23)C(=O)N2CCC3(CC2)OCCO3)cc2cn[nH]c12 (racemic) [Example 71, (±)-1-(1,4-Dioxa-8-aza-spiro[4.5]dec-8-yl)-2-(7-methyl-1H-indazol-5-ylmethyl)-4-[1′,2′-dihydro-2′-oxospiro-[4H-3′,1-benzoxazine-4,4′-piperidinyl]-butane-1,4-dione] |  | 0.87 | < 10 nM |  | < 10 nM | < 10 nM | 2 nM
